# Assay results taken from patent US8273754B2, “Substituted 1H-pyrazolo[3,4-D]pyrimidine-6-amine compounds” (ArQule, Inc., priority 2008, dated 2012).
# Where two headings read alike, the source gives them in different places.
# How the values were obtained:
# cancer cells = experiment: MTS cell growth inhibition assay (72 hours); format: cell-based
# In short: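 Cells in DMEM with 1% FBS, seeded 18 h, then compound-treated 72 h at 37 °C. Viability by MTS/PMS for 4 h, formazan absorbance at 492 nm; IC50 taken as concentration giving 50% absorbance drop, activity banded by percent inhibition.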
# FGFR2 (N549H) = molecular target: T1, FGFR2 (N549H) (Homo sapiens, UniProt P21802, N549H); experiment: fluorescent ELISA assay for inhibitors of FGFR2 kinase; format: biochemical; conditions: Pyk2 peptide substrate, 60 minutes
# T1 construct: purchased Millipore 14-742
# T1 sequence (P21802 22-821 N549H): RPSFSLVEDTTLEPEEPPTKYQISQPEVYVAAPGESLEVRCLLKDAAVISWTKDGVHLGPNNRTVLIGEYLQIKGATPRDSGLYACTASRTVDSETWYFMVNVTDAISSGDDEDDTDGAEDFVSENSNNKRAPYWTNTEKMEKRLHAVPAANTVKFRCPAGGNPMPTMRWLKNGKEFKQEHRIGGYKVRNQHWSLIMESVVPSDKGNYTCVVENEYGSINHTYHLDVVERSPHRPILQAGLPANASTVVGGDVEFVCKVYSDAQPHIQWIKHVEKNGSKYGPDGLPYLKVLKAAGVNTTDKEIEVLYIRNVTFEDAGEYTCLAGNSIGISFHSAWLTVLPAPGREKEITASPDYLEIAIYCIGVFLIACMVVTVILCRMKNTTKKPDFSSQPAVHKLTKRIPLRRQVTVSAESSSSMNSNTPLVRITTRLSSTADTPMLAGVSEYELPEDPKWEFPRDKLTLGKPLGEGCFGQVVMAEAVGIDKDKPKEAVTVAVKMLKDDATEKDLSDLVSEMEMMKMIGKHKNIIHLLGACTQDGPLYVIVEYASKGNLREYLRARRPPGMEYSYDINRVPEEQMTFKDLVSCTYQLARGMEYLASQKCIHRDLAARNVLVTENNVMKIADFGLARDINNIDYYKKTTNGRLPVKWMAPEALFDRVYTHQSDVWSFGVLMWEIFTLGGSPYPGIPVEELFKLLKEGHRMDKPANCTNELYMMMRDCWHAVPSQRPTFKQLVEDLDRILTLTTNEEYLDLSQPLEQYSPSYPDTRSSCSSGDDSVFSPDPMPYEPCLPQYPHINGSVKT
# Method: The enzymatic assays described herein are conducted according to the following procedures from commercially available reagents. In one non-limiting example, a fluorescent ELISA assay is used to identify and characterize inhibitors of FGFR2 kinase as described herein. This heterogeneous assay utilizes a biotinylated peptide with a tyrosine motif as a substrate and an anti-phospho-tyrosine antibody to measure phosphorylation of the substrate. The reaction is initiated by adding the test compound, 37 μM Pyk2 substrate (Midwest Biotech, Cat. #MBT2383), 12.5 μM ATP (Roche, Cat. #11 140 965 001) and 0.5 μM FGFR2 enzyme (Millipore, Cat. #14-742) sequentially to a non-binding polypropylene V-well plate. All reagents are in an assay buffer consisting of: 50 mM Tris-HCL, 0.02 mg/ml BSA, 10 mM MgCl2, 0.1 mM Na3VO4, 1 mM EGTA, 75 μM ATP, 0.01% NP-40, 2 mM DTT and 10% glycerol. The reaction is incubated for 60 minutes. As the reaction proceeds, FGFR2 phosphorylates tyrosines in the peptide. The reaction mixture is then moved to a blocked streptavidin-coated Nunc Maxisorb plate (coated with 100 ng streptavidin from Pierce (Cat. #15-124) per well), allowing for the capture of the biotinylated peptide. Peptides are captured for 30 minutes at room temperature, the phosphorylation of peptides continues during this phase. The reaction is stopped by washing the streptavidin-coated plate 6 times with TBST. Phosphorylated peptide is detected by adding anti-phospho-tyrosine antibody (Cell Signaling, Cat. #9411, diluted 1:3000) to the streptavidin-coated plate. Unbound anti-phospho-tyrosine antibody is removed by washing the streptavidin-coated plate 6 times with TBST. Secondary detection is performed using alkaline phosphatase tagged goat anti-mouse antibody (Pierce, Cat. #31320, diluted 1:4000) for one hour. Unbound secondary antibody is removed by washing the streptavidin-coated plate 6 times with TBST. The fluorescent readout is initiated by adding to the streptavidin-coated plate Promega Attophos substrate (Promega, Cat. #S1000, dilution=6 mg/10 ml), which, when dephosphorylated by alkaline phosphatase, emits a fluorescent signal of 595 nm in wavelength when excited by a signal of 400 nm in wavelength. The reading of the 595 nm signal is done on the Perkin Elmer Envision system. Compounds which prevent FGFR2 from phosphorylating the peptide result in a lower fluorescent signal. The 595 nm fluorescent signal is directly proportional to the activity of FGFR2. Thus, the inhibition of FGFR2 by compounds is monitored by the decrease in the 595 nm fluorescent signal.
# [1] = Homo sapiens, DLD-1, 72 h, DLD-1 cells, read-out: DLD-1 MTS 72 hr at 10 μM
# [2] = Homo sapiens, KATO III, 72 h, KATO III cells, read-out: KATO III MTS 72 hr at 10 μM
# [3] = Homo sapiens, MDA-MB-231, 72 h, MDA-MB-231 cells, read-out: MDA-MB-231 MTS 72 hr at 10 μM
# [4] = Homo sapiens, NCI-H1299, 72 h, NCI-H1299 cells, read-out: NCI-H1299 MTS 72 hr at 10 μM
# [5] = PaCa-2, 72 h, PACA-2 cells, read-out: PACA-2 MTS 72 hr at 10 μM
Structure (SMILES),inhibition at 10 µM (cancer cells; [1]),inhibition at 10 µM (cancer cells; [2]),inhibition at 10 µM (cancer cells; [3]),inhibition at 10 µM (cancer cells; [4]),inhibition at 10 µM (cancer cells; [5]),IC50 (FGFR2 (N549H))
"CC(C)(C)c1ccc(CN2CC(Nc3nc(N)nc4[nH]ncc34)Cc3ccccc32)cc1 (centres unmarked) [Compound 131, N4-[1-(4-tert-butylbenzyl)-1,2,3,4-tetrahydroquinolin-3-yl]-1H-pyrazolo[3,4-d]pyrimidine-4,6-diamine]",< 50%,< 50%,< 50%,< 50%,< 50%,> 30 µM
"CC(=O)c1ccc(S(=O)(=O)N2CC(Nc3nc(N)nc4[nH]ncc34)Cc3ccccc32)cc1 (centres unmarked) [Compound 48, 1-(4-(3-(6-amino-1H-pyrazolo[3,4-d]pyrimidin-4-ylamino)-3,4-dihydroquinolin-1(2H)-ylsulfonyl)phenyl)ethanone]",> 79%,50 to 79%,> 79%,< 50%,> 79%,17.2 µM
"Nc1nc(NC2Cc3ccccc3N(S(=O)(=O)c3ccc(F)c(Cl)c3)C2)c2cn[nH]c2n1 (centres unmarked) [Compound 43, N4-(1-(3-chloro-4-fluorophenylsulfonyl)-1,2,3,4-tetrahydroquinolin-3-yl)-1H-pyrazolo[3,4-d]pyrimidine-4,6-diamine]",> 79%,> 79%,> 79%,> 79%,> 79%,0.27 µM
"CC(C)(C)c1ccc(S(=O)(=O)N2CC(Nc3nc(N)nc4[nH]ncc34)Cc3ccccc32)cc1 (centres unmarked) [Compound 33, N4-(1-(4-tert-butylphenylsulfonyl)-1,2,3,4-tetrahydroquinolin-3-yl)-1H-pyrazolo[3,4-d]pyrimidine-4,6-diamine]",50 to 79%,50 to 79%,50 to 79%,< 50%,> 79%,> 30 µM
"COc1ccc(S(=O)(=O)N2CC(Nc3nc(N)nc4[nH]ncc34)Cc3ccccc32)cc1 (centres unmarked) [Compound 42, N4-(1-(4-methoxyphenylsulfonyl)-1,2,3,4-tetrahydroquinolin-3-yl)-1H-pyrazolo[3,4-d]pyrimidine-4,6-diamine]",< 50%,50 to 79%,< 50%,< 50%,< 50%,15.9 µM
"CC(=O)Nc1ccc(S(=O)(=O)N2CC(Nc3nc(N)nc4[nH]ncc34)Cc3ccccc32)cc1 (centres unmarked) [Compound 40, N-(4-(3-(6-amino-1H-pyrazolo[3,4-d]pyrimidin-4-ylamino)-3,4-dihydroquinolin-1(2H)-ylsulfonyl)phenyl)acetamide]",< 50%,< 50%,< 50%,< 50%,< 50%,> 30 µM
"Nc1nc(NC2Cc3ccccc3N(S(=O)(=O)c3ccccc3)C2)c2cn[nH]c2n1 (centres unmarked) [Compound 25, N4-(1-(phenylsulfonyl)-1,2,3,4-tetrahydroquinolin-3-yl)-1H-pyrazolo[3,4-d]pyrimidine-4,6-diamine]",< 50%,< 50%,< 50%,< 50%,< 50%,0.34 µM
"CN(c1nc(N)nc2[nH]ncc12)C1Cc2ccccc2N(Cc2ccc(Cl)c(Cl)c2)C1 (centres unmarked) [Compound 10, N^4-(1-(3,4-dichlorobenzyl)-1,2,3,4-tetrahydroquinolin-3-yl)-N^4-methyl-1H-pyrazolo[3,4-d]pyrimidine-4,6-diamine]",< 50%,50 to 79%,< 50%,< 50%,< 50%,1.55 µM
"Nc1nc(NC2Cc3ccccc3N(S(=O)(=O)c3ccccc3Cl)C2)c2cn[nH]c2n1 (centres unmarked) [Compound 52, N4-(1-(2-chlorophenylsulfonyl)-1,2,3,4-tetrahydroquinolin-3-yl)-1H-pyrazolo[3,4-d]pyrimidine-4,6-diamine]",< 50%,< 50%,< 50%,< 50%,< 50%,1.2 µM
"Nc1nc(NC2Cc3ccccc3N(S(=O)(=O)c3ccccc3F)C2)c2cn[nH]c2n1 (centres unmarked) [Compound 45, N4-(1-(2-fluorophenylsulfonyl)-1,2,3,4-tetrahydroquinolin-3-yl)-1H-pyrazolo[3,4-d]pyrimidine-4,6-diamine]",< 50%,< 50%,< 50%,< 50%,< 50%,0.38 µM
"Nc1nc(NC2Cc3ccccc3N(S(=O)(=O)c3cccc(C(F)(F)F)c3)C2)c2cn[nH]c2n1 (centres unmarked) [Compound 19, N4-(1-(3-(trifluoromethyl)phenylsulfonyl)-1,2,3,4-tetrahydroquinolin-3-yl)-1H-pyrazolo[3,4-d]pyrimidine-4,6-diamine]",< 50%,< 50%,< 50%,< 50%,< 50%,1.18 µM
"COc1ccccc1CN1CC(Nc2nc(N)nc3[nH]ncc23)Cc2ccccc21 (centres unmarked) [Compound 132, N4-[1-(2-methoxybenzyl)-1,2,3,4-tetrahydroquinolin-3-yl]-1H-pyrazolo[3,4-d]pyrimidine-4,6-diamine]",< 50%,< 50%,< 50%,< 50%,< 50%,22.3 µM
"Nc1nc(NC2Cc3ccccc3N(S(=O)(=O)c3cccc(Cl)c3)C2)c2cn[nH]c2n1 (centres unmarked) [Compound 26, N4-(1-(3-chlorophenylsulfonyl)-1,2,3,4-tetrahydroquinolin-3-yl)-1H-pyrazolo[3,4-d]pyrimidine-4,6-diamine]",> 79%,> 79%,50 to 79%,< 50%,> 79%,0.03 µM
"Cc1ccc(-c2ccc(S(=O)(=O)N3CC(Nc4nc(N)nc5[nH]ncc45)Cc4ccccc43)cc2)cc1 (centres unmarked) [Compound 50, N4-(1-(4′-methylbiphenyl-4-ylsulfonyl)-1,2,3,4-tetrahydroquinolin-3-yl)-1H-pyrazolo[3,4-d]pyrimidine-4,6-diamine]",50 to 79%,50 to 79%,< 50%,< 50%,50 to 79%,> 30 µM
"Nc1nc(NC2Cc3ccccc3N(Cc3ccc(F)c(F)c3)C2)c2cn[nH]c2n1 (centres unmarked) [Compound 124, N4-[1-(3,4-difluorobenzyl)-1,2,3,4-tetrahydroquinolin-3-yl]-1H-pyrazolo[3,4-d]pyrimidine-4,6-diamine]",,,,,,1.33 µM
"Cc1ccc(CN2CC(Nc3nc(N)nc4[nH]ncc34)Cc3ccccc32)c(C)c1 (centres unmarked) [Compound 134, N4-[1-(2,4-dimethylbenzyl)-1,2,3,4-tetrahydroquinolin-3-yl]-1H-pyrazolo[3,4-d]pyrimidine-4,6-diamine]",> 79%,> 79%,< 50%,< 50%,50 to 79%,
"COc1cccc(S(=O)(=O)N2CCC(Nc3nc(N)nc4[nH]ncc34)Cc3ccccc32)c1 (centres unmarked) [Compound 175, N4-{1-[(3-methoxyphenyl)sulfonyl]-2,3,4,5-tetrahydro-1H-1-benzazepin-4-yl}-1H-pyrazolo[3,4-d]pyrimidine-4,6-diamine]",< 50%,< 50%,< 50%,< 50%,< 50%,
